Experimental data taken from paper PMC10485003, “Antibiotic hyper-resistance in a class I aminoacyl-tRNA synthetase with altered active site signature motif” (Nature Communications, 2023).

Test system: IleRS2
Assay: Mupirocin inhibition of IleRS2 compared with IleRS1
Format: biochemical, bacteria
Details: IleRS1 strongly, IleRS2 modestly inhibited

## C/C(=C\C(=O)OCCCCCCCCC(=O)O)C[C@@H]1OC[C@H](C[C@@H]2O[C@H]2[C@@H](C)[C@H](C)O)[C@@H](O)[C@H]1O [mupirocin]
  difference in Ki between IleRS1 and IleRS2: 10^3−10^5 fold
